Data: US20050065208A1, “Benzofuranes and their use in the treatment of atrial fibrillation” (priority 2001, published 2005)
Read-outs that look alike come from different tables or passages of the source.

What was measured:
[1] = molecular target: T1, IK(ACh), AcetylCholine activated K-current (Homo sapiens, UniProt P48544+P48549); assay: Voltage clamp on cardiomyocyte cultures: inhibition of K-current induced by ACh or carbachol; format: cell-based
T1 construct: electrophysiology technique applied to cardiomyocyte cultures; endogenous in cells
T1 sequence (P48549 1-501): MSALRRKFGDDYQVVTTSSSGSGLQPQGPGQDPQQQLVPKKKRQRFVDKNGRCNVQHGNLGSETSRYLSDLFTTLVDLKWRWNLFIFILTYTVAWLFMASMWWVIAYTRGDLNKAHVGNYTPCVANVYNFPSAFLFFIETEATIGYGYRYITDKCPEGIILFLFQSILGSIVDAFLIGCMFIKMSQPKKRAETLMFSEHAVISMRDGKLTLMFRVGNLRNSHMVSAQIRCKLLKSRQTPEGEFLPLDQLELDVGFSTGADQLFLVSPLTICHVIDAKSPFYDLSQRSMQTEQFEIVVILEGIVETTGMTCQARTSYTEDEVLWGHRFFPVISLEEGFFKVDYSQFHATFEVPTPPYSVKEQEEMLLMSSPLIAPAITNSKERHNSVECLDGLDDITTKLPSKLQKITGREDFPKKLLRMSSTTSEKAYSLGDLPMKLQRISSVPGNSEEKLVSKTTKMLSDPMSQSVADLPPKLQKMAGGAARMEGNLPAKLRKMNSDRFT
T1 sequence (P48544 1-419): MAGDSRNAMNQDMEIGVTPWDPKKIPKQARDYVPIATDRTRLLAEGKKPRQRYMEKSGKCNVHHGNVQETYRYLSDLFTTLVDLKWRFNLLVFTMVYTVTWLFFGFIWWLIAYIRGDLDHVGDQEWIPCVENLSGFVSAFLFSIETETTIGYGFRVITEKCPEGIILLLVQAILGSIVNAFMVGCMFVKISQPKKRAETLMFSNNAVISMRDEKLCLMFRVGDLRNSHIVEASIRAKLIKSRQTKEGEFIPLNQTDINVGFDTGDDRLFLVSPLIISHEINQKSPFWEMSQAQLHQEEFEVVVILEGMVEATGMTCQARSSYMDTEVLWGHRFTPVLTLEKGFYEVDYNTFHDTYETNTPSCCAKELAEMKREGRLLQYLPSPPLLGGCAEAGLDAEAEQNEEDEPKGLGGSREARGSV
Description: (§1) In the present invention acute and chronic effects of various compounds have been investigated by using electrophysiology technique applied to cardiomyocyte cultures.
(§2) The inhibitory effects occur within seconds after induction of the current with ACh, Ado or dinitrophenole (DNP reduces intracellular ATP). The acute inhibitory effects caused by the compounds of the present invention on these K-currents in cardiac muscle tissue had not previously been discovered. The reasons for this include the fact that these ligand activated K-currents (IK(Ado), IK(ACh) and IK(ATP)) are preferentially active in the atrial cardiomyocytes (Workman A J et al. Cardiovasc Res 1999 September;43(4):974-84; Koumi S-I, and Wasserstorm A. American Journal of Physiology 266[35], H1812-H1821. 1994), while previous studies have been carried out with tissue from cardiac ventricles. Furthermore, IK(Ado) and IK(ACh) must first be induced via the M2 or A1 receptor (with ACh and Ado respectively) before any inhibition can be observed. Without any agonist at the extracellular site of the membrane these ligand-gated channels probably have only minor roles in shaping repolarization but, when activated by extracellular acetylcholine or adenosine, they can substantially shorten action potential duration in the atrium (Tristani-Firouzi M et al. Am J Med 2001 January; 110(1):50-9).
(§3) The following Table 1 illustrates the potency (IC50-values) of compounds of formulae I and II compared with other anti-arrhythmic drugs to inhibit the transmembrane currents IK(Ado) and IK(ACh) after stimulation of the currents with Adenosine or Acetylcholine (or Carbachol).

[2] = molecular target: T2, IK(Ado), adenosine activated K-current (Homo sapiens, UniProt P48544+P48549); assay: Voltage clamp on cardiomyocyte cultures: inhibition of adenosine-induced K-current; format: cell-based
T2 construct: electrophysiology technique applied to cardiomyocyte cultures; endogenous in cells
T2 sequence (P48549 1-501): T1 sequence (P48549 1-501)
T2 sequence (P48544 1-419): T1 sequence (P48544 1-419)
Description: as §1, §2, §3

[3] = molecular target: T1, IK(ACh), AcetylCholine activated K-current; design: key to Blocking activity on IK(ACh): Yes: The compound has been demonstrated to inhibit the particular current (reference within parenthesis).; No: The compound has been demonstrated to not inhibit the particular current (reference within parenthesis).; U: No data regarding interaction of the compound with the particular current has been found in the literature; conditions: cited from earlier work; for Blocking activity on IK(ACh): Table 2, literature; for IC50: current induced by ACh or carbachol, literature value, read-out: Inhibition of IK (ACh) (Induced by ACh or Carbachol) (IC50)
[4] = molecular target: INa, depolarizing Na-current (Homo sapiens, UniProt Q14524); design: key: Yes: The compound has been demonstrated to inhibit the particular current (reference within parenthesis).; No: The compound has been demonstrated to not inhibit the particular current (reference within parenthesis).; U: No data regarding interaction of the compound with the particular current has been found in the literature; conditions: Table 2, literature; cited from earlier work
[5] = molecular target: IKs, slow component of the delayed rectifier K-current (Homo sapiens, UniProt P51787); design: key: Yes: The compound has been demonstrated to inhibit the particular current (reference within parenthesis).; No: The compound has been demonstrated to not inhibit the particular current (reference within parenthesis).; U: No data regarding interaction of the compound with the particular current has been found in the literature; conditions: Table 2, literature; cited from earlier work
[6] = test system: IK1, inward rectifier K-current; design: key: Yes: The compound has been demonstrated to inhibit the particular current (reference within parenthesis).; No: The compound has been demonstrated to not inhibit the particular current (reference within parenthesis).; U: No data regarding interaction of the compound with the particular current has been found in the literature; conditions: Table 2, literature; cited from earlier work
[7] = test system: Ito, transient outward K-current; design: key: Yes: The compound has been demonstrated to inhibit the particular current (reference within parenthesis).; No: The compound has been demonstrated to not inhibit the particular current (reference within parenthesis).; U: No data regarding interaction of the compound with the particular current has been found in the literature; conditions: Table 2, literature; cited from earlier work
[8] = molecular target: T2, IK(Ado), adenosine activated K-current; design: key to Blocking activity on IK(Ado): Yes: The compound has been demonstrated to inhibit the particular current (reference within parenthesis).; No: The compound has been demonstrated to not inhibit the particular current (reference within parenthesis).; U: No data regarding interaction of the compound with the particular current has been found in the literature; conditions: cited from earlier work; for Blocking activity on IK(Ado): Table 2, literature; for IC50: literature value, read-out: Inhibition of IK (Ado) Induced by Adenosine (IC50)
[9] = molecular target: T3, IK(ATP), ATP-sensitive K-current (Homo sapiens, UniProt Q14654); design: key: Yes: The compound has been demonstrated to inhibit the particular current (reference within parenthesis).; No: The compound has been demonstrated to not inhibit the particular current (reference within parenthesis).; U: No data regarding interaction of the compound with the particular current has been found in the literature; conditions: Table 2, literature; cited from earlier work
T3 construct: electrophysiology technique applied to cardiomyocyte cultures; endogenous in cells; current induced with dinitrophenole
T3 sequence (Q14654 whole entry): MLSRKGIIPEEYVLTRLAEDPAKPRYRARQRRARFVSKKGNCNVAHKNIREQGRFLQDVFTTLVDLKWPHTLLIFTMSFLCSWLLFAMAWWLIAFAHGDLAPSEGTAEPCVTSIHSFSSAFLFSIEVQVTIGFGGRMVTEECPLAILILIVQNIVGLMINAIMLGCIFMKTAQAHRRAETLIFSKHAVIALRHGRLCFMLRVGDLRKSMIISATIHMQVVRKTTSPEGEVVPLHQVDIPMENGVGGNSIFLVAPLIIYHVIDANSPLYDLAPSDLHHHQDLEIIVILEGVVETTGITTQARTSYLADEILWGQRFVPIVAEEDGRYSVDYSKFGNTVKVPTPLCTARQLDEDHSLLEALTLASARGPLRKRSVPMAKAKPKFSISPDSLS
T3 sequence (O60706 whole entry partner): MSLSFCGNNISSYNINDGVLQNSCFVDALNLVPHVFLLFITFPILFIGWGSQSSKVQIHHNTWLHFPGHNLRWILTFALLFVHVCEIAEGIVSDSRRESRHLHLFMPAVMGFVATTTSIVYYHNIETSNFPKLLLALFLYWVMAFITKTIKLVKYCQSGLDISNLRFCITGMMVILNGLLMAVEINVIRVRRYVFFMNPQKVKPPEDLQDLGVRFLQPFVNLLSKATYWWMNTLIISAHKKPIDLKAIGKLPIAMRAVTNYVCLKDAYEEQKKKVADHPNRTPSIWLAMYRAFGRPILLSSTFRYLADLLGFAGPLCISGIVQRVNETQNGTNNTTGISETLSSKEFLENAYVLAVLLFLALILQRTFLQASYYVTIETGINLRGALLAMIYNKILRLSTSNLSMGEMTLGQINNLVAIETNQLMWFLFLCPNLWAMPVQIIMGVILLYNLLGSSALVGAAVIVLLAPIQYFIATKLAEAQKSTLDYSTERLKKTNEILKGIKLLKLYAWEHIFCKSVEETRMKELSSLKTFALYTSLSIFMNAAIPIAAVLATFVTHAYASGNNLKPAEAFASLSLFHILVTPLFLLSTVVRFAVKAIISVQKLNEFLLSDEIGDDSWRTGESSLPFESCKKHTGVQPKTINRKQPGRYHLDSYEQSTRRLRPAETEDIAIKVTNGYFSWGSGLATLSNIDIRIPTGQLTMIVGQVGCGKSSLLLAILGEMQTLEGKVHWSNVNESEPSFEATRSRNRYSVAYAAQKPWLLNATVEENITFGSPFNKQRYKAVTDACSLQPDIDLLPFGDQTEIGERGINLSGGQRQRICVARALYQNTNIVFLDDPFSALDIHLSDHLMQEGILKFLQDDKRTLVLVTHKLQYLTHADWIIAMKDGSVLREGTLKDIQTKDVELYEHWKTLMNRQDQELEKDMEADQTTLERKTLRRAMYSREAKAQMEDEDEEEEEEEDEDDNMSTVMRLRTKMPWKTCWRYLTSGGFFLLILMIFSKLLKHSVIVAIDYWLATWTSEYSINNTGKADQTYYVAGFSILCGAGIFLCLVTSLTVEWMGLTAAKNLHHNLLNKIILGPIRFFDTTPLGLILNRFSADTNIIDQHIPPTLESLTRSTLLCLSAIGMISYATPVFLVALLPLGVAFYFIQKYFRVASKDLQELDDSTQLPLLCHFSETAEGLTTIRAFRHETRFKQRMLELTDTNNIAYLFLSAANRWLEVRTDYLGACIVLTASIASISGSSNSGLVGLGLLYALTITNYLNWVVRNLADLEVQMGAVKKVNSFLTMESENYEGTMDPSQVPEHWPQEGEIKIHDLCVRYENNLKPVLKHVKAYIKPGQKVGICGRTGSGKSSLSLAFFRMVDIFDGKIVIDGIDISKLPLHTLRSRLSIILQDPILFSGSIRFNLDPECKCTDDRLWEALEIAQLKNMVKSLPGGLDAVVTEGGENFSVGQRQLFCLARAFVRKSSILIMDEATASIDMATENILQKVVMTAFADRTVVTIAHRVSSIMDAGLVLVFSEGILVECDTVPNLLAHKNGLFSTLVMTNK

INa, depolarizing Na-current, sequence (Q14524 whole entry): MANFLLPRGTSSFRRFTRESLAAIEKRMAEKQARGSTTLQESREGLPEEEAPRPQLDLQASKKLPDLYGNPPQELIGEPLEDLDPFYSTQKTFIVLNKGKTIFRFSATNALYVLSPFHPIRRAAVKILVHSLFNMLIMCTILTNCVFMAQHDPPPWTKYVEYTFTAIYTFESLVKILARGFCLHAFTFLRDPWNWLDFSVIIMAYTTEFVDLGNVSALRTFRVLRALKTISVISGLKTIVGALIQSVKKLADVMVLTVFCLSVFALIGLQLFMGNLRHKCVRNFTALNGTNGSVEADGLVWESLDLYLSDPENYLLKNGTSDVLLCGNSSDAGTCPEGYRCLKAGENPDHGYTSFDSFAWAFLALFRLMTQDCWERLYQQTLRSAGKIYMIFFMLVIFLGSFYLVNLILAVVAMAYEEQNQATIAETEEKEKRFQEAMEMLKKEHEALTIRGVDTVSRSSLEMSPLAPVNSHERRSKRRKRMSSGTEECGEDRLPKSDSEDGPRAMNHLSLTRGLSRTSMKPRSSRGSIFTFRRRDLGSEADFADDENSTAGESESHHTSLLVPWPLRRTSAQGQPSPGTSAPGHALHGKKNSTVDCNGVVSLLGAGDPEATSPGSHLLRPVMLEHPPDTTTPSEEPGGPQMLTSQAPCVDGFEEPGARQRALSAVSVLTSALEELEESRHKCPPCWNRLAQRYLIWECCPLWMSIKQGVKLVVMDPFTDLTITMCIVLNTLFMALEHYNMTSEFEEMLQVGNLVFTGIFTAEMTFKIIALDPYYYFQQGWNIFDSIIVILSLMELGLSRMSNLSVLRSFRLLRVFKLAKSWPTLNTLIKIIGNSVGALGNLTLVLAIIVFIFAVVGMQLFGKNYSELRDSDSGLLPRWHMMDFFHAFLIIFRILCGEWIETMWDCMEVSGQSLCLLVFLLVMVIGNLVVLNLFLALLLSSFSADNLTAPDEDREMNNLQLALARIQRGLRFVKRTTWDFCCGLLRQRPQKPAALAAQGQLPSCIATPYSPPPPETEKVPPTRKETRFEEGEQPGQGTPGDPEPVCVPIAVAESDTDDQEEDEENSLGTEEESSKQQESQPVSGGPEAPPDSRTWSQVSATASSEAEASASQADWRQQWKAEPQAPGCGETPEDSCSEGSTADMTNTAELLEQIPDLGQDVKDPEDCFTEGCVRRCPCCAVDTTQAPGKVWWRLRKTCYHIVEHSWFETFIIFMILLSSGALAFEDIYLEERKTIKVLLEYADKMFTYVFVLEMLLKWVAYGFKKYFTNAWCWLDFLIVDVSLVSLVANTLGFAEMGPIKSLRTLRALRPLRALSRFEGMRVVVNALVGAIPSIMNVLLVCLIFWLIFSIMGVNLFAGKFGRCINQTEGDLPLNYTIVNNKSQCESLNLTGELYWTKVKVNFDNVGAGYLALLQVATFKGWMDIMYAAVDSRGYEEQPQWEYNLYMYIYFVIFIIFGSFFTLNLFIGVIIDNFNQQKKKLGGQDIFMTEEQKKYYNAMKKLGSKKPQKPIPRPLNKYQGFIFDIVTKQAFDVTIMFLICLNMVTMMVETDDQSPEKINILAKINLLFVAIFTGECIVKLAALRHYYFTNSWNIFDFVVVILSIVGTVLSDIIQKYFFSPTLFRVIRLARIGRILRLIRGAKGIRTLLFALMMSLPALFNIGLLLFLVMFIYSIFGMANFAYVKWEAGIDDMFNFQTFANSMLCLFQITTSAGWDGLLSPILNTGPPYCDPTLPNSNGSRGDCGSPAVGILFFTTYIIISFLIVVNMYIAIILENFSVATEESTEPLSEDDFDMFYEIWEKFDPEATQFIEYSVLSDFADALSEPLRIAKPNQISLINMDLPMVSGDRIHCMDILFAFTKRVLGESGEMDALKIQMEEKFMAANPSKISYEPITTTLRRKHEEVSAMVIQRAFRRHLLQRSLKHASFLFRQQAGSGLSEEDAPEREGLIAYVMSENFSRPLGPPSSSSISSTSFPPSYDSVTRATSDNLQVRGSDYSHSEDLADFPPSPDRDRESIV

In the case of `N[C@@H](Cc1cc(I)c(Oc2ccc(O)c(I)c2)c(I)c1)C(=O)O` [Example T3, triiodthyronine], the “Acute effects on IK(ACh)” value [1] is reported as “does not have acute effects” and the “Acute effects on IK(Ado)” value [2] is reported as “does not have acute effects”.

For `CCCCc1oc2ccc(NS(C)(=O)=O)cc2c1C(=O)c1ccc(OCCCN(CCCC)CCCC)cc1` [Dronedarone], the “Blocking activity on IK(ACh)” value [3] is listed as “Yes”, the IC50 [3] is listed as 10 nM and the “Blocking activity on INa” value [4] is listed as “Yes”. The “Blocking activity on IKs” value [5] was “Yes”.

For `Cc1oc2ccccc2c1C(=O)c1cc(I)c(O)c(I)c1` [Example E5, 2-methyl-3-(3,5-diiodo-4-hydroxy-benzoyl)benzofuran], the IC50 ([1]; current induced by ACh or carbachol) was 1000 nM and the IC50 ([2]; current induced by adenosine) was 1000 nM.

In the case of `CCN(CC)CCCN(c1ccccc1)C1Cc2ccccc2C1` [Aprinidine], the “Blocking activity on IK(ACh)” value [3] is listed as “Yes”, the IC50 [3] is listed as 400 nM and the “Blocking activity on IK1” value [6] is listed as “No”. The “Blocking activity on INa” value [4] was “Yes”, the “Blocking activity on Ito” value [7] was “Yes” and the “Blocking activity on IKs” value [5] was “No”.

In the case of `CC(C)NCC(O)c1ccc(NS(C)(=O)=O)cc1` (racemic) [d,l-sotalol], the “Blocking activity on IK(ACh)” value [3] is given as “Yes (Mori)”, the IC50 [3] is given as 36000 nM and the “Blocking activity on IK1” value [6] is given as “Yes”. For the same compound, the “Blocking activity on INa” value [4] was “No”, the “Blocking activity on Ito” value [7] was “Yes” and the “Blocking activity on IKs” value [5] was “No”. For the same compound, the “Blocking activity on IK(Ado)” value [8] was “No” and the “Inhibition of IK (Ado) Induced by Adenosine, in words” value ([8]; current induced by adenosine, literature) was “No effect”.

In the case of `O=C(NCC1CCCCN1)c1cc(OCC(F)(F)F)ccc1OCC(F)(F)F` (centres unmarked) [Flecainide], the “Blocking activity on IK(ACh)” value [3] is given as “Yes”, the IC50 [3] is given as 3600 nM and the “Blocking activity on IK1” value [6] is given as “No”. For the same compound, the “Blocking activity on INa” value [4] was “Yes”, the “Blocking activity on Ito” value [7] was “Yes” and the “Blocking activity on IKs” value [5] was “No”. The “Blocking activity on IK(ATP)” value [9] was “Yes”.

In the case of `Cn1c(NCCN(CCO)CCCc2ccc([N+](=O)[O-])cc2)cc(=O)n(C)c1=O` [MS-551], the IC50 [3] is listed as 11000 nM and the “Inhibition of IK (Ado) Induced by Adenosine, effect at 100 μM” value ([8]; literature) is listed as “Some effect at 100 μM”.

In the case of `CC(C)NCC(O)COc1cccc2ccccc12` (centres unmarked) [Propranolol], the IC50 [3] is given as 56000 nM and the IC50 ([8]; current induced by adenosine) is given as 8000 nM.

In the case of `COc1ccc(C2CCN(CC[C@H]3CCOc4ccccc43)CC2)cc1OC` [Terikalant], the “Blocking activity on IK(ACh)” value [3] is listed as “Yes”, the IC50 [3] is listed as 2000 nM and the “Blocking activity on IK1” value [6] is listed as “Yes”. For the same compound, the “Blocking activity on INa” value [4] was “No”, the “Blocking activity on Ito” value [7] was “Yes” and the “Blocking activity on IKs” value [5] was “Yes”. For the same compound, the “Blocking activity on IK(ATP)” value [9] was “No”, the “Blocking activity on IK(Ado)” value [8] was “Yes” and the IC50 ([8]; current induced by adenosine) was 2000 nM.

For `CC(C)N(CCC(C(N)=O)(c1ccccc1)c1ccccn1)C(C)C` (centres unmarked) [Disopyramide], the “Blocking activity on IK(ACh)” value [3] is given as “Yes”, the IC50 [3] is given as 1700 nM and the “Blocking activity on IK1” value [6] is given as “No”. For the same compound, the “Blocking activity on INa” value [4] was “Yes”, the “Blocking activity on Ito” value [7] was “Yes” and the “Blocking activity on IKs” value [5] was “Yes”. The “Blocking activity on IK(ATP)” value [9] was “Yes”.

In the case of `Cc1cccc(CCN2CCC(C(=O)c3ccc(NS(C)(=O)=O)cc3)CC2)n1` [Example E-4031], the IC50 [3] is listed as 8000 nM and the “Inhibition of IK (Ado) Induced by Adenosine, effect at 100 μM” value ([8]; literature) is listed as “Some effect at 100 μM”.

For `C=C[C@H]1C[N@@]2CC[C@H]1C[C@@H]2[C@@H](O)c1ccnc2ccc(OC)cc12` [Quinidine], the “Blocking activity on IK(ACh)” value [3] is listed as “Yes”, the IC50 [3] is listed as 1600 nM and the “Blocking activity on IK1” value [6] is listed as “No”. For the same compound, the “Blocking activity on INa” value [4] was “Yes”, the “Blocking activity on Ito” value [7] was “Yes” and the “Blocking activity on IKs” value [5] was “No”. For the same compound, the “Blocking activity on IK(ATP)” value [9] was “Yes”.

For `Cc1cccc(C)c1NC(=O)CC12CCCN1CCC2` [SUN 1165], the IC50 [3] is given as 29000 nM.
